In patent US6737383B1, “Herbicidal oxadiazolidines” (priority 1999, dated 2004):

Tests used:
[1] = tested on: Abutilon theophrasti (ABUTH); assay: Test F preemergence, alone and in mixture with rimsulfuron, ABUTH; assay type: in vivo; details: 21 days after treatment, 0-100 scale
Experimental: (§1) Abutilon theophrasti (ABUTH), Chenopodium album (CHEAL), Amaranthus rudis (AMATA), Setaria faberii (SETFA), Panicum dichotomiflorum (PANDI), and Digitaria sanguinalis (DIGSA) were grown from seed in pots of an artificial potting mixture in a greenhouse. Compounds of the present invention were applied at 70 and 105 g ai/ha preemergence. Rimsulfuron was applied at 8.8 and 17.5 g ai/ha. Mixtures of the compounds of the present invention and rimsulfuron were also applied.
(§2) Following application, the plants were maintained by watering as needed. A fertilizer solution of Peter's 20-20-20 (10 pounds/5 gallons of water) plus Sprint 330, a Iron Chelate micronutrient, (113.5 grams/5 gallons of water) was injected into the water with an Anderson fertilizer injection system to provide approximately 219 ppm of nitrogen with each watering. Artificial lighting was used to supplement natural light to produce a 14 hour photoperiod and: an additional one hour light period was used between 1:00 am to 2:00 am for a night interruption. Greenhouse temperatures were targeted for 27° C. in the day and 21° C. at night. At 21 days after treatment, all plants were evaluated for injury as compared to control plants that were sprayed only with non-phytotoxic solvent.
(§3) Colby's equation was used to calculate the expected additive herbicidal effect of the mixtures of Compound 21 and the mixture partners listed above. […]

[2] = tested on: Panicum dichotomiflorum (PANDI); assay: Test F preemergence, alone and in mixture with rimsulfuron, PANDI; assay type: in vivo; details: 21 days after treatment, 0-100 scale
Experimental: as §1, §2, §3

[3] = tested on: Digitaria sanguinalis (DIGSA); assay: Test F preemergence, alone and in mixture with rimsulfuron, DIGSA; assay type: in vivo; details: 21 days after treatment, 0-100 scale
Experimental: as §1, §2, §3

[4] = tested on: Alexandergrass; assay: Test D Alexandergrass; assay type: in vivo, Brachiaria plantaginea; details: Postemergence, 0 to 100 scale
[5] = tested on: common pursiane; assay: Test D common purslane; assay type: in vivo, Portulaca oleracea; details: Postemergence, 0 to 100 scale
[6] = tested on: common groundsel; assay: Test D common groundsel; assay type: in vivo, Senecio vulgaris; details: Postemergence, 0 to 100 scale
[7] = tested on: pitted morningglory; assay: Test D pitted morningglory; assay type: in vivo, Ipomoea lacunosa; details: Postemergence, 0 to 100 scale
[8] = tested on: sourgrass; assay: Test D sourgrass; assay type: in vivo, Trichachne insularis; details: Postemergence, 0 to 100 scale
[9] = tested on: Spanishneedles; assay: Test D Spanishneedles; assay type: in vivo, Bidens bipinnata; details: Postemergence, 0 to 100 scale
[10] = tested on: surinam grass; assay: Test D surinam grass; assay type: in vivo, Brachiaria decumbens; details: Postemergence, 0 to 100 scale
[11] = tested on: Green foxtail; assay: Test D green foxtail; assay type: in vivo; details: Postemergence, 0 to 100 scale, 0 no injury, 100 complete control
[12] = tested on: Green foxtail; assay: Test D green foxtail; assay type: in vivo; details: Postemergence, 0 to 100 scale, 0 no injury, 100 complete control; remark: listed apart in the source
[13] = Alone: Cmpd. rate 70, Rimsulfuron 0
[14] = Alone: Cmpd. rate 105, Rimsulfuron 0
[15] = Rate 16 g/ha, 0 no injury, 100 complete control
[16] = Rate 32 g/ha, 0 no injury, 100 complete control
[17] = Rate 64 g/ha, 0 no injury, 100 complete control
[18] = Rate 125 g/ha, 0 no injury, 100 complete control

## CC(C)N(C(=O)n1oc(=O)n(C(C)C)c1=O)c1ccc(F)cc1 [Compound 131]
[1]; [13]
  ABUTH Observed: 40%
[1]; [14]
  ABUTH Observed: 60%
[2]; [13]
  PANDI Observed: 100%
[2]; [14]
  PANDI Observed: 95%
[3]; [13]
  DIGSA Observed: 100%
[3]; [14]
  DIGSA Observed: 100%
[4]; [15]
  Plant response rating, Alexandergrass: 0
[4]; [16]
  Plant response rating, Alexandergrass: 50
[4]; [17]
  Plant response rating, Alexandergrass: 100
[4]; [18]
  Plant response rating, Alexandergrass: 100
[4]; Rate 250 g/ha
  Plant response rating, Alexandergrass: 100
[5]; [15]
  Plant response rating, C. purslane: 0
[5]; [16]
  Plant response rating, C. purslane: 0
[5]; [17]
  Plant response rating, C. purslane: 0
[5]; [18]
  Plant response rating, C. purslane: 0
[5]; Rate 250 g/ha
  Plant response rating, C. purslane: 0
[6]; [15]
  Plant response rating, Com. groundsel: 90
[6]; [16]
  Plant response rating, Com. groundsel: 100
[6]; [17]
  Plant response rating, Com. groundsel: 100
[6]; [18]
  Plant response rating, Com. groundsel: 100
[6]; Rate 250 g/ha
  Plant response rating, Com. groundsel: 100
[7]; [15]
  Plant response rating, P. morninglory: 0
[7]; [16]
  Plant response rating, P. morninglory: 0
[7]; [17]
  Plant response rating, P. morninglory: 0
[7]; [18]
  Plant response rating, P. morninglory: 0
[7]; Rate 250 g/ha
  Plant response rating, P. morninglory: 100
[8]; [18]
  Sourgrass plant response rating: 50
[8]; Rate 250 g/ha
  Plant response rating, Sourgrass: —80
[9]; [15]
  Plant response rating, Spanishneedles: 0
[9]; [16]
  Plant response rating, Spanishneedles: 0
[9]; [17]
  Spanishneedles plant response rating: 0
[9]; [18]
  Spanishneedles plant response rating: 70
[9]; Rate 250 g/ha
  Plant response rating, Spanishneedles: 60
[10]; [15]
  Plant response rating, Surinam grass: 0
[10]; [16]
  Plant response rating, Surinam grass: 40
[10]; [17]
  Surinam grass plant response rating: 60
[10]; [18]
  Surinam grass plant response rating: 100
[10]; Rate 250 g/ha
  Plant response rating, Surinam grass: 100
[11]; Rate 64 g/ha
  Green foxtail plant response rating: 100
[11]; Rate 125 g/ha
  Green foxtail plant response rating: 100
[12]; Rate 16 g/ha
  Plant response rating, Green foxtail: 0
[12]; Rate 32 g/ha
  Plant response rating, Green foxtail: 60
